Measurements as given in patent US20210205389A1, “METHODS AND COMPOSITIONS FOR TREATING NON-SMALL CELL LUNG CANCER” (Chang Gung Medical Foundation Keelung Chang Gung Memorial …, priority 2015, published 2021).

Tests used:
[1] = test system: CL97 (gefitinib resistance cell line) xenograft; experiment: CL97 xenograft tumor study; format: in vivo, NOD/SCID mice; details: oral; Gefitinib 100 mg/kg 2 times/week; C1 1 g/kg, C2 600 mg/kg, C3 150 mg/kg 5 days/week; 10 weeks
Protocol: Human lung cancer cell line CL97 (obtained from Dr. Pan-Chyr Yang's lab, 1 million cells/injection) were subcutaneously injected into the right flank of NOD/SCID mice (female, 4-6 weeks old) and allowed one-two week for tumor growth. […] Over the period of 10 weeks, tumorigenesis in both groups was measured using a caliper on a weekly basis. The change in tumor size was expressed as in fold change and plotted over time.

[2] = test system: HUVEC cells; experiment: Tube formation assay; format: cell-based; details: sorafenib 10 μM (positive control)
Protocol: Tube formation assay was used to test the inhibitory effect of Composition 3 (400 and 600 μg/ml) in HUVEC cells. Treatment of sorafenib was used as a positive control. […] All samples were assayed in triplicate. Four images were taken per well of a 96-well plate at 10×. The data were quantitated by calculating the pentagonal ring or hexagonal ring loop numbers of each well and used solvent control (DMSO) as 100%.
In addition to the study of the immune modulator role of Composition 3, whether Composition 3 might affect angiogenesis was also studied. To investigate the anti-angiogenesis ability of Composition 3, the effect of Composition 3 on HUVEC cells tube formation was first tested. In the normal condition, HUVEC cells will arrange into pentagon or hexagon shape in matrigel to form a tube.

SMILES	Tumor reduction (%) [1] [%]	number of complete pentagon or hexagon tube [2]
COc1cc2ncnc(Nc3ccc(F)c(Cl)c3)c2cc1OCCCN1CCOCC1 [Gefitinib]	8.8	
CNC(=O)c1cc(Oc2ccc(NC(=O)Nc3ccc(Cl)c(C(F)(F)F)c3)cc2)ccn1 [sorafenib]		significant decreased
